The target in the assay is T1, GR (Homo sapiens, UniProt P04150).
T1 construct: expressed in transfected cells; host or cells: CHO-K1 (CHO-K1-GR-MMTV-Luc reporter cells)
T1 sequence (P04150 1-777): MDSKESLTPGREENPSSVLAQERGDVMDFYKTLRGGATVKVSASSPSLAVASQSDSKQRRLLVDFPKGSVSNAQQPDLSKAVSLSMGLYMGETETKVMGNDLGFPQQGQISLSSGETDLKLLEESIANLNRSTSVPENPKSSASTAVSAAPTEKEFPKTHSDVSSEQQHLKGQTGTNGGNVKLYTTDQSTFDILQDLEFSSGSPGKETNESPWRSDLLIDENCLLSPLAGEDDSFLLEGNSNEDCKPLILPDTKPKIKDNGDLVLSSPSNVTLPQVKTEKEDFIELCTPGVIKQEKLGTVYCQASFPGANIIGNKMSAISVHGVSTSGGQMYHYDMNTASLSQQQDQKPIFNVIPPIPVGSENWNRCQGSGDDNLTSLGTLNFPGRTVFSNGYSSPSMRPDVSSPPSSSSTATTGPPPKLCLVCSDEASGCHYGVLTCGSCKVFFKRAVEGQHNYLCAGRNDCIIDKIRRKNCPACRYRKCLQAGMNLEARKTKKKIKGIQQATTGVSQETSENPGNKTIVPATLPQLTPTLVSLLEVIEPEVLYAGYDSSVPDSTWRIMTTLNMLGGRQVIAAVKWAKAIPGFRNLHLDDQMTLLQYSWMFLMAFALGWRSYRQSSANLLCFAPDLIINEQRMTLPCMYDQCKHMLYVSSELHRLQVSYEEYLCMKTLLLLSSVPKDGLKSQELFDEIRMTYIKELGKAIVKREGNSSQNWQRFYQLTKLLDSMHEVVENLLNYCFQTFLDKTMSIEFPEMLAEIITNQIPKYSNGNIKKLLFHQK
The assay is described as follows: In Vitro GR Luciferase Reporter Assay (antagonist assay). It counts as cell-based. Particulars: CHO-K1-GR-MMTV-Luc reporter cells, 10 nM Dexamethasone, 18-24 hours. The protocol:
Example A: In Vitro GR Luciferase Reporter Assay
Cell Line: CHO-K1-GR-MMTV-Luc reporter cells
Culture Media: DMEM (with phenol red)+10% FBS
Assay Media: DMEM (without phenol red)+10% CSS
Culture CHO-K1-GR-MMTV-Luc reporter cells in T175 flasks in Culture Media at conditions less than 90% confluence.
Using Bravo (Agilent) liquid handler:
200× DMSO 1:3 serial dilutions of control and test compounds in 96-well non-sterile V bottom plate in DMSO, 12 points for each compound were prepared.
Prepared 5× compound serial dilutions: Add 97.5 μL/well of Assay Media into 96-well non-sterile V bottom plate then added 2.5 ul of 200× concentration of compounds and mix well.
Seeded cells for Antagonist Assay: 5200 CHO-K1-GR-MMTV-Luc reporter cells were seeded in Greiner #781080 flat clear bottom 384-well white TC plate in 20 ul of Assay Media containing 12.5 nM Dexamethasone (final concentration=10 nM).
Added compounds: 5 μl of 5× compounds were added to appropriate wells and followed with a quick spin (1000 rpm, 10 sec) to bring media and cells to the bottom of plate. The plates were covered with SealMate film to avoid evaporation and placed in 37° C. incubator for approximately 18-24 hours.
Read plates: Equilibrate appropriate amount of Promega OneGlo luciferase reagent to room temperature. Remove the plates from incubator and add 25 uL of OneGlo reagent/well by Bravo and read the plates on Tecan Spark plate reader within 15 minutes.
The ability of the compounds disclosed herein to inhibit GR activity was quantified and the respective IC50 value was determined. Table 1 provides the cellular IC50 values of compounds disclosed herein.
(In general: Reporter assays use an easily measured gene product as a stand-in for the process of interest.)

For orientation: IC50 means the concentration needed to halve the response being measured. Read a high IC50 as a need for much substance.

Each structure is given as a SMILES string.

The compound `C[C@H]([C@H]1CCC2=Cc3c(cnn3-c3ccc(F)cc3)C[C@]2(C(=O)c2ncc(C(F)(F)F)s2)C1)S(=O)(=O)c1cnn(C)c1` (single isomer, unassigned) [Example 9, ((4aR,6S)-1-(4-Fluorophenyl)-6-((R)-1-((1-methyl-1H-pyrazol-4-yl)sulfonyl)ethyl)-1,4,5,6,7,8-hexahydro-4aH-benzo[f]indazol-4a-yl)(5-(trifluoromethyl)thiazol-2-yl)methanone or ((4aR,6S)-1-(4-fluorophenyl)-6-((S)-1-((1-methyl-1H-pyrazol-4-yl)sulfonyl)ethyl)-1,4,5,6,7,8-hexahydro-4aH-benzo[f]indazol-4a-yl)(5-(trifluoromethyl)thiazol-2-yl)methanone] came in with an IC50 of at most 100 nM.
As for `C[C@@H]([C@H]1CCC2=Cc3c(cnn3-c3ccc(F)cc3)C[C@]2(C(=O)c2ncc(C(F)(F)F)s2)C1)S(=O)(=O)c1cnn(C)c1` (single isomer, unassigned) [Example 10, ((4aR,6S)-1-(4-Fluorophenyl)-6-((R)-1-((1-methyl-1H-pyrazol-4-yl)sulfonyl)ethyl)-1,4,5,6,7,8-hexahydro-4aH-benzo[f]indazol-4a-yl)(5-(trifluoromethyl)thiazol-2-yl)methanone or ((4aR,6S)-1-(4-fluorophenyl)-6-((S)-1-((1-methyl-1H-pyrazol-4-yl)sulfonyl)ethyl)-1,4,5,6,7,8-hexahydro-4aH-benzo[f]indazol-4a-yl)(5-(trifluoromethyl)thiazol-2-yl)methanone], the figure is at most 100 nM; as for `Cn1cnc(S(=O)(=O)N(C2CC2)[C@H]2CCC3=Cc4c(cnn4-c4ccc(F)cc4)C[C@]3(C(=O)c3ncc(C(C)(C)C)s3)C2)c1` [Example 1, N-((4aS,6S)-4a-(5-(tert-Butyl)thiazole-2-carbonyl)-1-(4-fluorophenyl)-4,4a,5,6,7,8-hexahydro-1H-benzo[f]indazol-6-yl)-N-cyclopropyl-1-methyl-1H-imidazole-4-sulfonamide], at most 100 nM; as for `Cn1cnc(S(=O)(=O)N(C2CC2)[C@H]2CCC3=Cc4c(cnn4-c4ccc(F)cc4)C[C@]3(C(=O)c3cc(F)ccn3)C2)c1` [Example 2, N-Cyclopropyl-N-((4aS,6S)-1-(4-fluorophenyl)-4a-(4-fluoropicolinoyl)-4,4a,5,6,7,8-hexahydro-1H-benzo[f]indazol-6-yl)-1-methyl-1H-imidazole-4-sulfonamide], at most 100 nM.
In the case of `Cn1cc(S(=O)(=O)N(C2CC2)[C@H]2CCC3=Cc4c(cnn4-c4ccc(F)nc4)C[C@]3(C(=O)c3cc(F)ccn3)C2)cn1` [Example 3, N-Cyclopropyl-N-((4aS,6S)-4a-(4-fluoropicolinoyl)-1-(6-fluoropyridin-3-yl)-4,4a,5,6,7,8-hexahydro-1H-benzo[f]indazol-6-yl)-1-methyl-1H-pyrazole-4-sulfonamide] it was at most 100 nM.
As for `Cn1cnc(S(=O)(=O)N(CC(F)(F)F)[C@H]2CCC3=Cc4c(cnn4-c4ccc(F)cc4)C[C@]3(C(=O)c3cc(F)ccn3)C2)n1` [Example 4, N-((4aS,6S)-1-(4-Fluorophenyl)-4a-(4-fluoropicolinoyl)-4,4a,5,6,7,8-hexahydro-1H-benzo[f]indazol-6-yl)-1-methyl-N-(2,2,2-trifluoroethyl)-1H-1,2,4-triazole-3-sulfonamide], the figure is at most 100 nM; as for `Cn1cc(S(=O)(=O)N(CCF)[C@H]2CCC3=Cc4c(cnn4-c4ccc(F)cc4)C[C@]3(C(=O)c3cc(F)ccn3)C2)cn1` [Example 5, N-(2-Fluoroethyl)-N-((4aS,6S)-1-(4-fluorophenyl)-4a-(4-fluoropicolinoyl)-4,4a,5,6,7,8-hexahydro-1H-benzo[f]indazol-6-yl)-1-methyl-1H-pyrazole-4-sulfonamide], at most 100 nM; as for `CC(C)N([C@H]1CCC2=Cc3c(cnn3-c3ccc(F)cn3)C[C@]2(C(=O)c2cc(C(F)(F)F)ccn2)C1)S(=O)(=O)c1cnn(C)c1` [Example 6, N-((4aS,6S)-1-(5-Fluoropyridin-2-yl)-4a-(4-(trifluoromethyl)picolinoyl)-4,4a,5,6,7,8-hexahydro-1H-benzo[f]indazol-6-yl)-N-isopropyl-1-methyl-1H-pyrazole-4-sulfonamide], at most 100 nM.
Consider `Cn1cnc(S(=O)(=O)[C@H]2CCC3=Cc4c(cnn4-c4ccc(F)cc4)C[C@]3(C(=O)c3ccc(C4CC4)cn3)C2)n1` [Example 7, (5-Cyclopropylpyridin-2-yl)((4aS,6S)-1-(4-fluorophenyl)-6-((1-methyl-1H-1,2,4-triazol-3-yl)sulfonyl)-1,4,5,6,7,8-hexahydro-4aH-benzo[f]indazol-4a-yl)methanone], for which the IC50 was at most 100 nM.
As for `Cn1ccc(S(=O)(=O)C(C)(C)[C@H]2CCC3=Cc4c(cnn4-c4ccc(F)cc4)C[C@]3(C(=O)c3cc(F)ccn3)C2)n1` [Example 8, ((4aR,6S)-1-(4-Fluorophenyl)-6-(2-((1-methyl-1H-pyrazol-3-yl)sulfonyl)propan-2-yl)-1,4,5,6,7,8-hexahydro-4aH-benzo[f]indazol-4a-yl)(4-fluoropyridin-2-yl)methanone], the IC50 was at most 100 nM.
For the compound `Cn1cnc(S(=O)(=O)N(C2CC2)[C@H]2CCC3=Cc4c(cnn4-c4ccc(F)nc4)C[C@]3(C(=O)c3cc(C(F)(F)F)ccn3)C2)n1` [Example 11, N-cyclopropyl-N-((4aS,6S)-1-(6-fluoropyridin-3-yl)-4a-(4-(trifluoromethyl)picolinoyl)-4,4a,5,6,7,8-hexahydro-1H-benzo[f]indazol-6-yl)-1-methyl-1H-1,2,4-triazole-3-sulfonamide], the IC50 is at most 100 nM.
`Cn1cc(S(=O)(=O)N(CC(F)F)[C@H]2CCC3=Cc4c(cnn4-c4ccc(F)cc4)C[C@]3(C(=O)c3ncc(C(F)(F)F)s3)C2)cn1` [Example 12] came in with an IC50 of at most 100 nM.
The compound `Cn1cc(S(=O)(=O)N(C2CC(F)(F)C2)[C@H]2CCC3=Cc4c(cnn4-c4ccc(F)cc4)C[C@]3(C(=O)c3cc(Cl)ccn3)C2)cn1` [Example 13] yielded an IC50 of at most 100 nM.
In the case of `Cn1cnc(S(=O)(=O)N([C@H]2CCC3=Cc4c(cnn4-c4ccc(F)cc4)C[C@]3(C(=O)c3ncc(C(F)(F)F)s3)C2)[C@H]2C[C@@H](C#N)C2)n1` [Example 14] it was at most 100 nM; in that of `Cn1cc(S(=O)(=O)C[C@H]2CCC3=Cc4c(cnn4-c4ccc(F)cc4)C[C@]3(C(=O)c3cc(F)ccn3)C2)cn1` [Example 15], at most 100 nM; in that of `Cn1cc(S(=O)(=O)N(C2CC2)[C@H]2CCC3=Cc4c(cnn4-c4ccc(F)nc4)C[C@]3(C(=O)c3ncc(C(F)(F)F)s3)C2)cn1` [Example 16], at most 100 nM.
As for `Cn1ncnc1S(=O)(=O)[C@H]1CCC2=Cc3c(cnn3-c3ccc(F)cc3)C[C@]2(C(=O)c2cc(C(F)(F)F)ccn2)C1` [Example 17], the figure is at most 100 nM; as for `Cn1cc(S(=O)(=O)N(C2CC2)[C@H]2CCC3=Cc4c(cnn4-c4ccc(F)nc4)C[C@]3(C(=O)c3cc(C(F)(F)F)ccn3)C2)cn1` [Example 18], at most 100 nM.
Take `O=C(c1cc(C(F)(F)F)ccn1)[C@]12Cc3cnn(-c4ccc(F)nc4)c3C=C1CC[C@H](N(C1CC1)S(=O)(=O)c1ccc(F)cc1)C2` [Example 19]: the IC50 was at most 100 nM.
In the case of `CN(C)C(=O)CN([C@H]1CCC2=Cc3c(cnn3-c3ccc(F)cc3)C[C@]2(C(=O)c2cc(C(F)(F)F)ccn2)C1)S(=O)(=O)c1ccn(C)n1` [Example 21] it was at most 100 nM; in that of `Cn1cnc(S(=O)(=O)N(C2CC2)[C@H]2CCC3=Cc4c(cnn4-c4ccc(F)cc4)C[C@]3(C(=O)c3csc(C(F)(F)F)n3)C2)n1` [Example 22], at most 100 nM.
